Reference: PubChem BioAssay (NCI)
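Five compound concentrations were applied to cells in 96-well plates for 48 hours; endpoints were derived by simple linear interpolation of the resulting dose-response curve. The concentration for 50% growth inhibition is given as GI50. TGI marks complete inhibition of growth.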

Key:
Experiment in all cases: NCI-60 cell line screen, 48 h
[1] = test system: BT-549 breast
[2] = test system: DU-145 prostate
[3] = test system: PC-3 prostate
[4] = test system: MDA-MB-231 breast
[5] = test system: T-47D breast
[6] = test system: HS 578T breast
[7] = test system: MCF7 breast

Question: `CC1CC2(C)CC(=O)C1C1C(=O)N(CCN3CCCCC3)C(=O)C12` (configuration not stated) was tested. Which GI50 [1] did it give?
Answer: > 100 µM

Question: And the TGI [1]?
Answer: > 100 µM

Question: What about the GI50 [2] of the same molecule?
Answer: > 100 µM

Question: What about the TGI [2] of the same molecule?
Answer: > 100 µM

Question: And the GI50 [3]?
Answer: > 100 µM

Question: And the TGI [3]?
Answer: > 100 µM

Question: What about the GI50 [4] of the same molecule?
Answer: > 100 µM

Question: And the TGI [4]?
Answer: > 100 µM

Question: What about the GI50 [5] of the same molecule?
Answer: > 100 µM

Question: What about the TGI [5] of the same molecule?
Answer: > 100 µM

Question: And the GI50 [6]?
Answer: > 100 µM

Question: And the TGI [6]?
Answer: > 100 µM

Question: How did the GI50 [1] turn out when `CC(=O)N(Cc1ccccc1)c1ccccc1I(=O)=O` was run?
Answer: > 100 µM

Question: And the TGI [1]?
Answer: > 100 µM

Question: What about the GI50 [2] of the same molecule?
Answer: 29.6 µM

Question: What about the TGI [2] of the same molecule?
Answer: > 100 µM

Question: What about the GI50 [4] of the same molecule?
Answer: 50.4 µM

Question: What about the TGI [4] of the same molecule?
Answer: > 100 µM

Question: And the GI50 [5]?
Answer: 36.1 µM

Question: And the TGI [5]?
Answer: > 100 µM

Question: What about the GI50 [6] of the same molecule?
Answer: > 100 µM

Question: What about the TGI [6] of the same molecule?
Answer: > 100 µM

Question: What about the GI50 [7] of the same molecule?
Answer: 16.5 µM

Question: And the TGI [7]?
Answer: 40.5 µM

Question: Which GI50 [1] does the source give for `CC/C=C\C/C=C\C[C@H](O)C/C=C1/C(=O)C=C[C@@H]1C/C=C\CCCC(=O)OC` here?
Answer: 1.83 µM

Question: And the TGI [1]?
Answer: 4.01 µM

Question: What about the GI50 [2] of the same molecule?
Answer: 3.6 µM

Question: And the TGI [2]?
Answer: 14.6 µM

Question: What about the GI50 [3] of the same molecule?
Answer: 2.54 µM

Question: What about the TGI [3] of the same molecule?
Answer: 6.68 µM

Question: What about the GI50 [4] of the same molecule?
Answer: 3 µM

Question: What about the TGI [4] of the same molecule?
Answer: 10.3 µM

Question: And the GI50 [5]?
Answer: 2.1 µM

Question: What about the TGI [5] of the same molecule?
Answer: 9.38 µM

Question: And the GI50 [6]?
Answer: 6.59 µM

Question: What about the TGI [6] of the same molecule?
Answer: 46.7 µM

Question: And the GI50 [7]?
Answer: 0.329 µM

Question: And the TGI [7]?
Answer: 5.2 µM

Question: What does the source list for `CC1=C(C(=O)Nc2ccc(Cl)c(Cl)c2)C(c2ccccc2O)NC(=O)N1` (configuration not stated)?
Answer: GI50 [1]: 15.3 µM; TGI [1]: > 50 µM; GI50 [2]: > 50 µM; TGI [2]: > 50 µM; GI50 [3]: 33.7 µM; TGI [3]: > 50 µM; GI50 [4]: 28 µM; TGI [4]: > 50 µM; GI50 [5]: > 50 µM; TGI [5]: > 50 µM; GI50 [6]: 32.2 µM; TGI [6]: > 50 µM

Question: With `O=C1CN(/N=C/c2ccc(-c3ccc(F)cc3)o2)C(=O)N1` as the molecule, how does the TGI [2] read?
Answer: > 100 µM

Question: What about the TGI [3] of the same molecule?
Answer: > 100 µM

Question: What about the TGI [4] of the same molecule?
Answer: > 100 µM

Question: What about the TGI [5] of the same molecule?
Answer: > 100 µM

Question: And the TGI [6]?
Answer: > 100 µM

Question: What about the TGI [7] of the same molecule?
Answer: > 100 µM

Question: With `COc1cccc(C2NC(=S)NC(C)=C2C(=O)Nc2ccc(Cl)c(Cl)c2)c1` (configuration not stated) as the molecule, how does the GI50 [1] read?
Answer: 7.15 µM

Question: What about the TGI [1] of the same molecule?
Answer: 16.8 µM

Question: What about the GI50 [2] of the same molecule?
Answer: 0.00711 µM

Question: What about the TGI [2] of the same molecule?
Answer: 12 µM

Question: And the GI50 [3]?
Answer: 14.3 µM

Question: And the TGI [3]?
Answer: > 50 µM

Question: What about the GI50 [4] of the same molecule?
Answer: 9.41 µM

Question: What about the TGI [4] of the same molecule?
Answer: 19.6 µM

Question: And the GI50 [5]?
Answer: 14.4 µM

Question: What about the TGI [5] of the same molecule?
Answer: > 50 µM

Question: And the GI50 [6]?
Answer: 10.7 µM

Question: What about the TGI [6] of the same molecule?
Answer: 28.8 µM

Question: For `CC1OC(OC2CCC3(C=O)C4CCC5(C)C(C6=CC(=O)OC6)CCC5(O)C4CCC3(O)C2)C(O)C(O)C1O` (configuration not stated), which TGI [1] is on record?
Answer: 4.44e-05 µM

Question: What about the TGI [2] of the same molecule?
Answer: 1.75e-05 µM

Question: What about the TGI [3] of the same molecule?
Answer: 0.0025 µM

Question: And the TGI [4]?
Answer: 0.0025 µM

Question: What about the TGI [6] of the same molecule?
Answer: > 100 µM

Question: What does the source list for `Cc1cc(Cl)ccc1Nc1nc(C(F)(F)F)ccc1C(=O)N1CCN(c2cccc(Cl)c2)CC1`?
Answer: GI50 [1]: > 100 µM; TGI [1]: > 100 µM; GI50 [2]: > 100 µM; TGI [2]: > 100 µM; GI50 [3]: 7.56 µM; TGI [3]: > 100 µM; GI50 [4]: 11 µM; TGI [4]: > 100 µM; GI50 [5]: > 100 µM; TGI [5]: > 100 µM; GI50 [6]: 3.89 µM; TGI [6]: > 100 µM; GI50 [7]: 25.6 µM; TGI [7]: > 100 µM

Question: With `CCOc1cc(-c2ccc[nH]2)[nH]c1/C=C1\N=C(C)C(C(=O)OC)=C1C` as the molecule, how does the GI50 [1] read?
Answer: 0.0451 µM

Question: What about the TGI [1] of the same molecule?
Answer: 1.92 µM

Question: And the GI50 [2]?
Answer: 0.0549 µM

Question: What about the TGI [2] of the same molecule?
Answer: 1.56 µM

Question: And the GI50 [3]?
Answer: 0.0357 µM

Question: And the TGI [3]?
Answer: 2.13 µM

Question: What about the GI50 [4] of the same molecule?
Answer: 0.0171 µM

Question: What about the TGI [4] of the same molecule?
Answer: 0.279 µM

Question: And the GI50 [5]?
Answer: 0.0311 µM

Question: And the TGI [5]?
Answer: 0.367 µM

Question: What about the GI50 [6] of the same molecule?
Answer: 0.0475 µM

Question: And the TGI [6]?
Answer: 0.58 µM

Question: What about the GI50 [7] of the same molecule?
Answer: 0.0369 µM

Question: And the TGI [7]?
Answer: 0.467 µM

Question: What does the source list for `N=C1C=C(N)C(=O)c2[nH]c(=O)ccc21`?
Answer: TGI [2]: 21.4 µM; TGI [3]: 2.8 µM; TGI [4]: 3.46 µM; TGI [5]: 4.88 µM; TGI [6]: > 100 µM; TGI [7]: 1.78 µM
